This passage reports IC50 results from patent US6967196B1, “Sulfonamide compounds and uses thereof” (Bristol-Myers Squibb Company, priority 1999, dated 2005).

pIC50: −log10 of the molar value. Bounds are passed on as bounds.

One assay has as its system amyloid β production in transfected H4 (human neuroglioma) cells stably expressing APP constructs. Put plainly: In vitro cell-based assay of inhibitors of amyloid β production (ELISA). The conditions noted are these: transfected H4 cells stably expressing APP; approx. 16 h incubation; amyloid β in medium by ELISA; read-out: ACTIVITY (IC50, inhibition of amyloid β production). Summed up: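 Transfected H4 cells stably expressing wild-type or variant APP were exposed to compounds (initial screen 10-100 μM) for about 16 h. Secreted Aβ in the medium was quantified by sandwich ELISA (C-terminal-specific monoclonal capture, N-terminal-specific polyclonal detection) against an Aβ standard curve; dose-response runs followed for actives.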
For “N-{3-[2-(1-{[(4-chlorophenyl)sulfonyl]-2,5-difluoroanilino}ethyl)phenoxy]propyl}-2,4,5-trifluoro-N-methylbenzamide [Example 710]”, the negative logarithm of the IC50 (pIC50) was 6.30 to 7.00.

As for “N-{3-[2-(1-{[(4-chlorophenyl)sulfonyl]-2,5-difluoroanilino}ethyl)phenoxy]propyl}-2,4-dimethoxy-N-methylbenzamide [Example 753]”, the pIC50 was 6.30 to 7.00.

Take “N-{3-[2-(1-{[(4-chlorophenyl)sulfonyl]-2,5-difluoroanilino}ethyl)phenoxy]propyl}-2,5-bis(trifluoromethyl)benzamide [Example 736]”: the negative logarithm of the IC50 (pIC50) is 6.30 to 7.00.

As to “N-{3-[2-(1-{[(4-chlorophenyl)sulfonyl]-2,5-difluoroanilino}ethyl)phenoxy]propyl}-2,5-difluoro-N-methylbenzamide [Example 727]”, the pIC50 is 6.30 to 7.00.

As for “N-{3-[2-(1-{[(4-chlorophenyl)sulfonyl]-2,5-difluoroanilino}ethyl)phenoxy]propyl}-2,6-difluoro-N-methylbenzamide [Example 755]”, the pIC50 is 6.30 to 7.00.

With “N-{3-[2-(1-{[(4-chlorophenyl)sulfonyl]-2,5-difluoroanilino}ethyl)phenoxy]propyl}-2-phenylcyclopropanecarboxamide [Example 789]”, the negative-log IC50 (pIC50) was 6.30 to 7.00.

“N-{3-[2-(1-{[(4-chlorophenyl)sulfonyl]-2,5-difluoroanilino}ethyl)phenoxy]propyl}-3,4,5-trimethoxybenzamide [Example 651]”: the negative-log IC50 (pIC50) was 6.30 to 7.00.

For “N-{3-[2-(1-{[(4-chlorophenyl)sulfonyl]-2,5-difluoroanilino}ethyl)phenoxy]propyl}-3,4-dimethoxy-N-methylbenzamide [Example 643]”, the pIC50 was 6.30 to 7.00.

On to “N-{3-[2-(1-{[(4-chlorophenyl)sulfonyl]-2,5-difluoroanilino}ethyl)phenoxy]propyl}-3,5-dimethoxy-N-methylbenzamide [Example 802]”, for which the negative-log IC50 (pIC50) is 6.30 to 7.00.

With “N-{3-[2-(1-{[(4-chlorophenyl)sulfonyl]-2,5-difluoroanilino}ethyl)phenoxy]propyl}-3-fluoro-N-methylbenzamide [Example 699]”, the pIC50 was 6.30 to 7.00.

For “N-{3-[2-(1-{[(4-chlorophenyl)sulfonyl]-2,5-difluoroanilino}ethyl)phenoxy]propyl}-3-methoxy-N-methylbenzamide [Example 786]”, the pIC50 was 6.30 to 7.00.

As for “N-{3-[2-(1-{[(4-chlorophenyl)sulfonyl]-2,5-difluoroanilino}ethyl)phenoxy]propyl}-3-methoxybenzamide [Example 690]”, the pIC50 was 6.30 to 7.00.

Regarding “N-{3-[2-(1-{[(4-chlorophenyl)sulfonyl]-2,5-difluoroanilino}ethyl)phenoxy]propyl}-3-nitrobenzamide [Example 723]”, the pIC50 was 6.30 to 7.00.

Regarding “N-{3-[2-(1-{[(4-chlorophenyl)sulfonyl]-2,5-difluoroanilino}ethyl)phenoxy]propyl}-4-fluoro-N-methylbenzamide [Example 654]”, the pIC50 is 6.30 to 7.00.

For the substance “N-{3-[2-(1-{[(4-chlorophenyl)sulfonyl]-2,5-difluoroanilino}ethyl)phenoxy]propyl}-4-fluorobenzamide [Example 679]”, the pIC50 is 6.30 to 7.00.

In the case of “N-{3-[2-(1-{[(4-chlorophenyl)sulfonyl]-2,5-difluoroanilino}ethyl)phenoxy]propyl}-4-iodo-N-methylbenzamide [Example 719]”, the pIC50 is 6.30 to 7.00.

For the substance “N-{3-[2-(1-{[(4-chlorophenyl)sulfonyl]-2,5-difluoroanilino}ethyl)phenoxy]propyl}-4-methoxy-N-methylbenzamide [Example 652]”, the negative logarithm of the IC50 (pIC50) is 6.30 to 7.00.

For the substance “N-{3-[2-(1-{[(4-chlorophenyl)sulfonyl]-2,5-difluoroanilino}ethyl)phenoxy]propyl}-4-methylbenzamide [Example 707]”, the negative-log IC50 (pIC50) is 6.30 to 7.00.

As for “N-{3-[2-(1-{[(4-chlorophenyl)sulfonyl]-2,5-difluoroanilino}ethyl)phenoxy]propyl}-4-nitrobenzamide [Example 805]”, the pIC50 is 6.30 to 7.00.

“N-{3-[2-(1-{[(4-chlorophenyl)sulfonyl]-2,5-difluoroanilino}ethyl)phenoxy]propyl}-N,2-dimethylbenzamide [Example 693]”: the negative-log IC50 (pIC50) was 6.30 to 7.00.

As to “N-{3-[2-(1-{[(4-chlorophenyl)sulfonyl]-2,5-difluoroanilino}ethyl)phenoxy]propyl}-N,4-dimethylbenzamide [Example 741]”, the pIC50 was 6.30 to 7.00.

Regarding “N-{3-[2-(1-{[(4-chlorophenyl)sulfonyl]-2,5-difluoroanilino}ethyl)phenoxy]propyl}-N-methyl-1-naphthalenesulfonamide [Example 776]”, the pIC50 is 6.30 to 7.00.

In the case of “N-{3-[2-(1-{[(4-chlorophenyl)sulfonyl]-2,5-difluoroanilino}ethyl)phenoxy]propyl}-N-methyl-2-naphthalenesulfonamide [Example 671]”, the pIC50 was 6.30 to 7.00.

For the substance “N-{3-[2-(1-{[(4-chlorophenyl)sulfonyl]-2,5-difluoroanilino}ethyl)phenoxy]propyl}-N-methyl-3-(trifluoromethyl)benzamide [Example 657]”, the pIC50 was 6.30 to 7.00.

Staying with this assay, now noted: transfected H4 cells stably expressing APP; approximately 16 hours incubation; amyloid β in medium by ELISA; read-out: ACTIVITY (IC50, inhibition of amyloid β production).
Regarding “N-{3-[2-(1-{[(4-chlorophenyl)sulfonyl]-2,5-difluoroanilino}ethyl)phenoxy]propyl}-2-naphthamide [Example 808]”, the negative logarithm of the IC50 (pIC50) was 6.30 to 7.00.

Turning to “N-{3-[2-(1-{[(4-chlorophenyl)sulfonyl]-2,5-difluoroanilino}ethyl)phenoxy]propyl}-3,5-difluorobenzamide [Example 815]”, the pIC50 is 6.30 to 7.00.

On to “N-{3-[2-(1-{[(4-chlorophenyl)sulfonyl]-2,5-difluoroanilino}ethyl)phenoxy]propyl}-4-(trifluoromethoxy)benzamide [Example 920]”, for which the pIC50 is less than 6.30.

As for “N-{3-[2-(1-{[(4-chlorophenyl)sulfonyl]-2,5-difluoroanilino}ethyl)phenoxy]propyl}-4-iodobenzamide [Example 824]”, the pIC50 is 6.30 to 7.00.

Consider “N-{3-[2-(1-{[(4-chlorophenyl)sulfonyl]-2,5-difluoroanilino}ethyl)phenoxy]propyl}-4-methoxybenzamide [Example 819]”, for which the pIC50 was 6.30 to 7.00.

Regarding “N-{3-[2-(1-{[(4-chlorophenyl)sulfonyl]-2,5-difluoroanilino}ethyl)phenoxy]propyl}-N-methyl-1-naphthamide [Example 966]”, the pIC50 was less than 6.30.

Regarding “N-{3-[2-(1-{[(4-chlorophenyl)sulfonyl]-2,5-difluoroanilino}ethyl)phenoxy]propyl}-N-methyl-2,5-bis(trifluoromethyl)benzamide [Example 892]”, the pIC50 is less than 6.30.

With “N-{3-[2-(1-{[(4-chlorophenyl)sulfonyl]-2,5-difluoroanilino}ethyl)phenoxy]propyl}-N-methyl-2-naphthamide [Example 858]”, the pIC50 was 6.30 to 7.00.

On to “N-{3-[2-(1-{[(4-chlorophenyl)sulfonyl]-2,5-difluoroanilino}ethyl)phenoxy]propyl}-N-methyl-3,5-bis(trifluoromethyl)benzamide [Example 934]”, for which the pIC50 was less than 6.30.
